Measured values reported in patent US10597388B2, “Pyridazinone herbicides” (FMC CORPORATION, priority 2014, dated 2020).
Read-outs that look alike come from different tables or passages of the source.

Columns and labels:
Assay type in all cases: in vivo
[1] = system: momingglory (Ipomoea spp.); test: Test A greenhouse herbicide test, pre- and postemergence; settings: Ipomoea, 240 h, 1000 g ai/ha, 0 to 100 scale
How it was run: (§1)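 Seeds in loam–sand blend received a preemergence directed soil spray; plants at 2–10 cm, one- to two-leaf stage, received postemergence sprays. Compounds in a non-phytotoxic solvent with surfactant. After about 10 d in a greenhouse, injury rated visually versus untreated controls on a 0–100 scale (100 = complete control).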

[2] = system: crabgrass, large (large crabgrass, Digitaria sanguinalis); test: as above; settings: Digitaria sanguinalis, 240 h, 1000 g ai/ha, 0 to 100 scale
How it was run: as §1

[3] = system: velvetleaf (Abutilon theophrasti); test: as above; settings: Abutilon theophrasti, 240 h, 1000 g ai/ha, 0 to 100 scale
How it was run: as §1

[4] = system: wild poinsettia (Euphorbia heterophylla); test: Test E greenhouse herbicide test, pre- and postemergence
How it was run: (§2)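 Herbicidal effect was judged by eye relative to untreated plants 14 to 21 d after spraying, using 0 for no effect and 100 for complete control. Preemergence sprays went onto freshly seeded silt loam; postemergence sprays onto 2–18 cm seedlings.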

[5] = system: horseweed (Conyza canadensis); test: as above
How it was run: as §2

[6] = system: pigweed, palmer (palmer pigweed, Amaranthus palmeri); test: as above
How it was run: as §2

[7] = system: foxtail, green (green foxtail, Setaria viridis); test: as above; settings: Preemergence
How it was run: as §2

[8] = system: Italian ryegrass (Lolium multiflorum); test: as above
How it was run: as §2

[9] = system: dayflower (Virginia (VA) dayflower, Commelina virginica); test: as above
How it was run: as §2

[10] = system: lambsquarters (Chenopodium album); test: as above; settings: Preemergence
How it was run: as §2

[11] = 62 g ai/ha, Postemergence, scale 0 to 100 (0 no effect, 100 complete control)
[12] = 62 g ai/ha, Preemergence, scale 0 to 100 (0 no effect, 100 complete control)
[13] = 125 g ai/ha, Postemergence, scale 0 to 100 (0 no effect, 100 complete control)
[14] = 125 g ai/ha, Preemergence, scale 0 to 100 (0 no effect, 100 complete control)
[15] = Postemergence, 16 g ai/ha, visual, scale 0 no effect to 100 complete control
[16] = Postemergence, 31 g ai/ha, visual, scale 0 no effect to 100 complete control
[17] = Preemergence, 16 g ai/ha, scale 0 to 100, 0 no effect, 100 complete control
[18] = Preemergence, 31 g ai/ha, scale 0 to 100, 0 no effect, 100 complete control
[19] = 62 g ai/ha, scale 0 to 100 (0 no effect, 100 complete control)
[20] = 125 g ai/ha, scale 0 to 100 (0 no effect, 100 complete control)
[21] = 16 g ai/ha, scale 0 to 100, 0 no effect, 100 complete control
[22] = 31 g ai/ha, scale 0 to 100, 0 no effect, 100 complete control
[23] = 250 g ai/ha, Postemergence, scale 0 to 100 (0 no effect, 100 complete control)
[24] = Preemergence, 250 g ai/ha, visual, scale 0 no effect to 100 complete control
[25] = 250 g ai/ha, visual, scale 0 no effect to 100 complete control

## CCc1oc2ccc(C)cc2c1-c1c(O)c(C)nn(C)c1=O [Compound 10, 4-(2-ethyl-5-methyl-3-benzofuranyl)-5-hydroxy-2,6-dimethyl-3(2H)-pyridazinone]
[1]; post-emergence, Postemergence, 0 is no effect, 100 is complete control, read-out: Morningglory plant response rating
  pest or weed control at 1000 g/ha: 100%
[1]; pre-emergence, Preemergence, 0 no effect, 100 complete control, read-out: Plant response rating, Morningglory
  pest or weed control at 1000 g/ha: 90%
[2]; post-emergence, Postemergence, 0 is no effect, 100 is complete control, read-out: Crabgrass, Large plant response rating
  pest or weed control at 1000 g/ha: 70%
[2]; pre-emergence, Preemergence, 0 no effect, 100 complete control, read-out: Plant response rating, Crabgrass, Large
  pest or weed control at 1000 g/ha: 90%
[3]; post-emergence, Postemergence, 0 is no effect, 100 is complete control, read-out: Velvetleaf plant response rating
  pest or weed control at 1000 g/ha: 100%
[3]; pre-emergence, Preemergence, 0 no effect, 100 complete control, read-out: Plant response rating, Velvetleaf
  pest or weed control at 1000 g/ha: 90%

## CCCC(=O)Oc1c(C)nn(C)c(=O)c1-c1c(C)sc2ccc(C)cc12 [Compound 105]
[4]; [11]
  Plant response rating, Poinsettia, Wild: 25
[4]; [12]
  Plant response rating, Poinsettia, Wild: 10
[4]; [13]
  Plant response rating, Poinsettia, Wild: 30
[4]; [14]
  Plant response rating, Poinsettia, Wild: 10
[4]; [15]
  Plant response rating, Poinsettia, Wild: 30
[4]; [16]
  Plant response rating, Poinsettia, Wild: 30
[4]; [17]
  Plant response rating, Poinsettia, Wild: 0
[4]; [18]
  Plant response rating, Poinsettia, Wild: 10
[5]; [11]
  Plant response rating, Horseweed: 85
[5]; [12]
  Plant response rating, Horseweed: 100
[5]; [14]
  Plant response rating, Horseweed: 100
[5]; [15]
  Plant response rating, Horseweed: 80
[5]; [16]
  Plant response rating, Horseweed: 85
[5]; [17]
  Plant response rating, Horseweed: 0
[5]; [18]
  Plant response rating, Horseweed: 0
[6]; [11]
  Plant response rating, Pigweed, Palmer: 70
[6]; [12]
  Plant response rating, Pigweed, Palmer: 98
[6]; [13]
  Plant response rating, Pigweed, Palmer: 70
[6]; [14]
  Plant response rating, Pigweed, Palmer: 90
[6]; [15]
  Plant response rating, Pigweed, Palmer: 75
[6]; [16]
  Plant response rating, Pigweed, Palmer: 70
[6]; [17]
  Plant response rating, Pigweed, Palmer: 0
[6]; [18]
  Plant response rating, Pigweed, Palmer: 0
[7]; [19]
  Plant response rating, Foxtail, Green: 30
[7]; [20]
  Plant response rating, Foxtail, Green: 40
[7]; [21]
  Plant response rating, Foxtail, Green: 0
[7]; [22]
  Plant response rating, Foxtail, Green: 0
[8]; [11]
  Plant response rating, Ryegrass, Italian: 70
[8]; [12]
  Plant response rating, Ryegrass, Italian: 95
[8]; [13]
  Plant response rating, Ryegrass, Italian: 80
[8]; [14]
  Plant response rating, Ryegrass, Italian: 100
[8]; [15]
  Plant response rating, Ryegrass, Italian: 30
[8]; [16]
  Plant response rating, Ryegrass, Italian: 50
[8]; [17]
  Plant response rating, Ryegrass, Italian: 75
[8]; [18]
  Plant response rating, Ryegrass, Italian: 90
[9]; [11]
  Plant response rating, Dayflower, VA: 50
[9]; [12]
  Plant response rating, Dayflower, VA: 0
[9]; [13]
  Plant response rating, Dayflower, VA: 60
[9]; [14]
  Plant response rating, Dayflower, VA: 10
[9]; [15]
  Plant response rating, Dayflower, VA: 30
[9]; [16]
  Plant response rating, Dayflower, VA: 30
[9]; [17]
  Plant response rating, Dayflower, VA: 0
[9]; [18]
  Plant response rating, Dayflower, VA: 0
[10]; [19]
  Plant response rating, Lambsquarters: 100
[10]; [20]
  Plant response rating, Lambsquarters: 100
[10]; [21]
  Plant response rating, Lambsquarters: 0
[10]; [22]
  Plant response rating, Lambsquarters: 0

## Cc1ccc2ccccc2c1-c1c(OC(=O)OC(C)C)c(C)nn(C)c1=O [Compound 72]
[4]; [11]
  Plant response rating, Poinsettia, Wild: 40
[4]; [12]
  Plant response rating, Poinsettia, Wild: 15
[4]; [13]
  Plant response rating, Poinsettia, Wild: 65
[4]; [14]
  Plant response rating, Poinsettia, Wild: 10
[4]; [23]
  Plant response rating, Poinsettia, Wild: 75
[4]; [16]
  Plant response rating, Poinsettia, Wild: 30
[4]; [18]
  Plant response rating, Poinsettia, Wild: 0
[4]; [24]
  Plant response rating, Poinsettia, Wild: 20
[5]; [11]
  Plant response rating, Horseweed: 60
[5]; [12]
  Plant response rating, Horseweed: 100
[5]; [13]
  Plant response rating, Horseweed: 75
[5]; [14]
  Plant response rating, Horseweed: 100
[5]; [23]
  Plant response rating, Horseweed: 70
[5]; [16]
  Plant response rating, Horseweed: 60
[5]; [18]
  Plant response rating, Horseweed: 0
[5]; [24]
  Plant response rating, Horseweed: 100
[6]; [11]
  Plant response rating, Pigweed, Palmer: 50
[6]; [12]
  Plant response rating, Pigweed, Palmer: 75
[6]; [13]
  Plant response rating, Pigweed, Palmer: 60
[6]; [14]
  Plant response rating, Pigweed, Palmer: 95
[6]; [23]
  Plant response rating, Pigweed, Palmer: 75
[6]; [16]
  Plant response rating, Pigweed, Palmer: 50
[6]; [18]
  Plant response rating, Pigweed, Palmer: 35
[6]; [24]
  Plant response rating, Pigweed, Palmer: 90
[7]; [19]
  Plant response rating, Foxtail, Green: 35
[7]; [20]
  Plant response rating, Foxtail, Green: 65
[7]; [22]
  Plant response rating, Foxtail, Green: 30
[7]; [25]
  Plant response rating, Foxtail, Green: 70
[8]; [11]
  Plant response rating, Ryegrass, Italian: 80
[8]; [12]
  Plant response rating, Ryegrass, Italian: 90
[8]; [13]
  Plant response rating, Ryegrass, Italian: 85
[8]; [14]
  Plant response rating, Ryegrass, Italian: 100
[8]; [23]
  Plant response rating, Ryegrass, Italian: 90
[8]; [16]
  Plant response rating, Ryegrass, Italian: 80
[8]; [18]
  Plant response rating, Ryegrass, Italian: 90
[8]; [24]
  Plant response rating, Ryegrass, Italian: 100
[9]; [11]
  Plant response rating, Dayflower, VA: 65
[9]; [12]
  Plant response rating, Dayflower, VA: 15
[9]; [13]
  Plant response rating, Dayflower, VA: 80
[9]; [14]
  Plant response rating, Dayflower, VA: 50
[9]; [23]
  Plant response rating, Dayflower, VA: 80
[9]; [16]
  Plant response rating, Dayflower, VA: 60
[9]; [18]
  Plant response rating, Dayflower, VA: 0
[9]; [24]
  Plant response rating, Dayflower, VA: 50
[10]; [19]
  Plant response rating, Lambsquarters: 80
[10]; [20]
  Plant response rating, Lambsquarters: 100
[10]; [22]
  Plant response rating, Lambsquarters: 90
[10]; [25]
  Plant response rating, Lambsquarters: 100
